For 17 molecules, inhibition and IC50 results are on record in US5504244A, “Alkylarylketo acids” (Boehringer Ingelheim Pharmaceuticals, Inc., priority 1993, dated 1996).

The inhibition is the change of the read-out against control, counted positive when it falls. Broadly, the IC50 is the concentration that gives 50% inhibition.

Like-named read-outs stand apart in the source and are kept apart here.

What all share (format): cell-based
Test [1] relates to 5-HETE biosynthesized by glycogen-stimulated polymorphonuclear leucocytes (PMNs). Description: Hydroxyacid Profile Assay (HPA): inhibition of 5-HETE synthesis in glycogen-elicited rabbit PMNs. The settings on record: Oryctolagus cuniculus, Leucocyte; for inhibition at 100 µM: read-out: Percent Inhibition (100 μM). The method, then: As previously noted 5-HETE biosynthesis serves as a marker for arachidonic acid metabolism via the 5-lipoxygenase pathway which produces (poly)hydroxyeicosatetraenoic acids and the potent bronchoconstrictor and vasoactive leukotrienes LTC4, LTD4 and LTE4.
Buffer A (8.70 g NaCl; 0.27 g KCl; 0.42 g Na2 HPO4; 0.76 g KH2 PO4; and 1.00 g dextrose per liter H2 O; pH 7.0) (0.325 ml) is introduced into each of a battery of screwtop culture tubes. Then, a solution of a compound (0.100 ml) to be assayed is dispensed into individual tubes. Assays are performed in duplicate at 100 μM and 10 μM concentrations. Control tubes receive Buffer A (0 100 ml) in lieu of compound. Next, rabbit PMNs (2×10^7 cells/tube; 4×10^7cells/ml) (0.500 ml) are added to each tube. The rabbit PMN's used are elicited with glycogen and made into a preparation substantially as described by F. Hirata. et al (1979) Proc. Natl. Acad. Sci. USA, 76, 2640-2643. The tubes are vortexed and preincubated in a shaking 37° C. water bath for 15 minutes.
Thereafter, the tubes are removed from the water bath and calcium ionophore solution (400 μg/ml A-23187; Sigma Chemical Co., St. Louis, Mo.) (0.025 ml), ^14 C-arachidonic acid (0.25 μCi in 0.025 ethanol; New England Nuclear Products, Boston, Mass.) (0.025 ml) and calcium chloride solution (CaCl2.2H2 O ); 105.8 mg/10 […]) (0.025 ml) are added in that order. The tubes are vortexed and returned to the water bath for 30 minutes. The reaction is then terminated by the addition of HCl (0.8N, 0.025 ml).
Extraction and concentration of ^14 C-labeled 5-HETE is performed as follows. First, solution containing 2 parts ethyl acetate, 3 parts CH2 Cl2 and 0.01 ml unlabeled arachidonic acid is added (5.01 ml) to each tube. The tubes are capped and briefly vortexed. The contents of each tube is poured into a polypropylene column fitted with a porous polyethylene disc and Whatman phase separation filter paper. The organic phase is collected by gravity filtration into a conical centrifuge tube, While the aqueous phase is retained in the column by the phase separation paper. Each culture tube is rinsed once with the EtOAc:CH2 Cl2 solution (1.0 ml) and the wash added to the column. The organic phase is concentrated to (0.5 ml) using a Savant Speed Vac concentrator (Savant Instruments, Inc., Hicksville, N.Y.).
After concentration of the organic phase, the tubes are vortexed and stored covered on ice. An aliquot (0.01 ml) is then removed for liquid scintillation counting in a Beckman LS7500 Liquid Scintillation Counter (Beckman Instruments Corp., Fullerton, Calif.). Based on the count, the number of μl containing 1×10^5 cpm is calculated. This volume is applied to a silica gel covered glass plate in a 10 mm streak. The remaining fluid in the tube is measured via syringe and noted.
The TLC plate is placed in a chromatography chamber containing the following solvent system: CHCl3 :MeOH:HOAc:H2 O (v/v;90: 9:1:0.65). The plate is then air dried and counted on a Berthold Linear TLC Analyzer (Berthold Instruments, Inc., Pittsburgh, Pa.) for 30 minutes per lane if a dose response curve had been run, or for 5 min per lane if drug screening had been done. The integrated area of the 5-HETE band for each compound is converted to percent of control and analyzed. The percent inhibition at 100 μM compound concentration and the concentration (μM) which produces a 50% inhibition of 5-HETE synthesis (IC50), are determined for those compounds described in Examples 1-36, and are reported in Table 1 .

Test [2] has as its system guinea pig ileal strips. Description: Modified Schultz-Dale Assay: inhibition of antigen-induced anaphylactic contraction of passively sensitized ileal strips. The settings on record: Cavia porcellus; for IC50: value in parentheses. The method, then: In the classic Schultz-Dale assay, guinea pigs are sensitized with a known immunogen or passively sensitized with guinea pig antiserum to the immunogen, strips of ilea are recovered, and the extent of their contraction in response to a challenge exposure to the same antigen is observed as a measure of anaphylactic response. The experiments described here follow this same procedure while exposing the ileal strips to test compound before exposure to antigen challenge (preincubation) and, in some strips, also after antigen challenge (postincubation).
The male Hartley strain guinea pigs (450-650 g) whose ilea are used in this Schultz-Dale assay are passively sensitized with IgE antiovalbumin antiserum as follows. The antiserum is developed in another group of similar guinea pigs as described in Graziano, et al., J. Immunol. 127:1067-1070 (1981) and pooled. The test animals are then each passively sensitized by subcutaneous injection of the pooled antiserum (1 ml).
About 2-7 days after sensitization, the guinea pigs are sacrificed and the terminal ilea are removed. They are cut into strips (6 cm) and positioned in tissue baths (5 ml) of Tyrode's solution with atropine (1 μg/ml) at 37° C. One end of each strip is fixed to an immobile post and the other movably mounted to a Grass Ft. 0.03 linear force displacement transducer and a Grass Model 7 polygraph. The tension is set (at 1 gram) and the tissue is allowed to equilibrate (10 minutes). Tissue viability is tested by establishing a consistent response to histamine (0.5 μg/ml). After several histamine-induced contractions, mepyramine (1 μg/ml) is added to inhibit any contractions due to the anaphylactic release of endogenous histamine.
A minimum of 3 animals are used for each compound tested and, of the 6 strips from each animal, 2 strips are incubated (preincubation) with a test compound (final concentration 75 μM), 2 with an appropriate reference standard (BW-755C at 75 μM) and 2 with saline solution (control) for a predetermined period (5 minutes). After this initial incubation period, ovalbumin (100 μg/ml) is added to each bath and the resulting anaphylactic contraction measured. The data are recorded as of tension produced by the tissue in excess of the 1 gram tension that was initially set. At the peak of the contraction, a dose of the same test compound (75 μM) is added (postincubation) to one control strip and reference standard (FPL-55712 at 1.9 μM). The strips are monitored (1 minute) and any effect on the established contraction is recorded as described above.
Two types of data are derived from the above protocol. First, pre-antigen inhibition (prechallenge) is expressed as the percent inhibition in each of the strips preincubated with test compound measured against the averaged contractions of the two control strips. Prechallenge inhibition by the reference standard is also determined in each experiment as a positive control. The reference used consistently gives 60-80% inhibition. Second, post-antigen inhibition (postchallenge) is determined by measuring the decrease in anaphylactic contraction of a control strip produced by adding either a test compound or standard at the peak of the contraction. The reference used consistently gives 70-90% inhibition. The data in each experiment, therefore, consists of 2 prechallenge and 1 postchallenge value for both test compound and standard.

The test system of test [3] is guinea pig ileal strips. The description is as above. Particulars: Cavia porcellus, **tested at 20 μg/ml.
The mark [4] stands for this setting: added at peak of contraction after antigen, read-out: Postchallenge IC50.
The mark [5] stands for this setting: preincubation before ovalbumin antigen, read-out: Prechallenge IC50.
[6] abbreviates: added at peak of contraction after antigen, read-out: Postchallenge mean percent inhibition.
The mark [7] stands for this setting: preincubation before ovalbumin antigen, read-out: Prechallenge mean percent inhibition.

Turning to `CCCCCCCc1ccc(C(=O)CCCCC(=O)O)cc1` [Example 1, 5-(4-n-Heptylbenzoyl)pentanoic acid], the inhibition at 100 µM in test [1] (5-HETE synthesis) turned out to be 78%. Moreover, the IC50 in test [1] (read-out: IC50 (50% inhibition of 5-HETE synthesis)) came to 30 µM; in test [2] (setting [4]), 48 µM; in test [2] (setting [5]), 27 µM. Besides, the inhibition at 20 µg/mL in test [3] (setting [6]) amounted to 68%; in test [3] (setting [7]) it was 81%.
In the case of `CCCCCc1ccc(C(=O)CCCC(=O)O)cc1` [Example 3, 4-(4-n-Pentylbenzoyl)butanoic acid], the inhibition at 100 µM in test [1] (5-HETE synthesis) was determined as 0%. Further, the inhibition at 20 µg/mL was determined as 47% in test [3] (setting [6]) and 65% in test [3] (setting [7]).
Turning to `CCCCCc1ccc(C(=O)CCC(=O)O)cc1` [Example 4, 3-(4-n-Pentylbenzoyl)propanoic acid], the inhibition at 100 µM in test [1] (5-HETE synthesis) was 65%. Further, the inhibition at 20 µg/mL was 49% in test [3] (setting [6]) and 65% in test [3] (setting [7]).
Regarding `CCCCCCCCCc1ccc(C(=O)CCCCC(=O)O)cc1` [Example 9, 5-(4-n-Nonylbenzoyl)pentanoic acid], the inhibition at 100 µM in test [1] (5-HETE synthesis) came to 79%. Also, the inhibition at 20 µg/mL is 2% in test [3] (setting [6]) and 33% in test [3] (setting [7]).
Take `CCCCCCCCCCc1ccc(C(=O)CCCCC(=O)O)cc1` [Example 10, 5-(4-n-Decylbenzoyl)pentanoic acid]: in test [1] (5-HETE synthesis), the inhibition at 100 µM was 88%. The inhibition at 20 µg/mL came out at 11% in test [3] (setting [6]) and 7% in test [3] (setting [7]).
`CCCCCCCCCCCCCCc1ccc(C(=O)CCCCC(=O)O)cc1` [Example 11, 5-(4-n-Tetradecylbenzoyl)pentanoic acid]: the inhibition at 100 µM in test [1] (5-HETE synthesis) came to 76%. The figures for the inhibition at 20 µg/mL in test [3] (setting [6]) and in test [3] (setting [7]) were 14% and 1%, respectively.
With `CCCCCCOc1ccc(C(=O)CCCCC(=O)O)cc1` [Example 12, 5-(4-n-Hexyloxybenzoyl)pentanoic acid], in test [1] (5-HETE synthesis), the inhibition at 100 µM stood at 75%. Moreover, the inhibition at 20 µg/mL in test [3] (setting [6]) came to 18%; in test [3] (setting [7]), 70%.
Turning to `CCCCCCCCc1ccc(C(=O)Cc2cccc(C(=O)O)c2)cc1` [Example 19, 3-(4-n-Octylphenacyl)benzoic acid], in test [1] (5-HETE synthesis), the inhibition at 100 µM is < 44%. In addition, the inhibition at 75 µM in test [2] (setting [6]) was 30%; in test [2] (setting [7]) it was 78%. Further, the IC50 in test [2] (setting [4]) was > 75 µM; in test [2] (setting [5]) it was 51 µM.
As to `Cc1ccc(C(=O)CCCCC(=O)O)cc1` [Example 21, 5-(4-Methylbenzoyl)pentanoic acid], in test [1] (at 10 μM, 5-HETE synthesis, read-out: Percent Inhibition), the inhibition at 10 µM turned out to be 0%. Also, the inhibition at 20 µg/mL is 11% in test [3] (setting [6]) and 29% in test [3] (setting [7]).
As for `CCCCCCCc1ccc(C(=O)CC(C)(C)CC(=O)O)cc1` [Example 24, 4-(4-Heptylbenzoyl)-3,3-dimethylbutanoic acid], in test [1] (5-HETE synthesis), the inhibition at 100 µM was 51%. The inhibition at 75 µM in test [2] (setting [6]) came out at 43%; in test [2] (setting [7]), 84%. Also, the IC50 in test [2] (setting [4]) is 40 µM; in test [2] (setting [5]), 26 µM.
As to `CCCCOc1ccc(C(=O)c2cccc(C(=O)O)c2)c(OC)c1` [Example 25, 3-(4-Butoxy-2-methoxybenzoyl)benzoic acid], the inhibition at 100 µM in test [1] (5-HETE synthesis) came out at 70%. Besides, the inhibition at 75 µM came out at 46% in test [2] (setting [6]) and 84% in test [2] (setting [7]). Moreover, the IC50 in test [2] (setting [4]) came out at 14 µM; in test [2] (setting [5]) it was 22 µM.
In the case of `COc1ccc(C(=O)c2cccc(C(=O)O)c2)c(O)c1` [Example 27, 3-(2-Hydroxy-4-methoxybenzoyl)benzoic acid], in test [1] (5-HETE synthesis), the inhibition at 100 µM turned out to be 31%. Moreover, the inhibition at 75 µM in test [2] (setting [6]) was 14%; in test [2] (setting [7]), 58%.
As to `CCCCCCOc1ccc(C(=O)c2cccc(C(=O)O)c2)c(C)c1` [Example 29, 3-(4-n-Hexyloxy-2-methylbenzoyl)-benzoic acid], the inhibition at 100 µM in test [1] (5-HETE synthesis) turned out to be 88%. Moreover, the inhibition at 75 µM in test [2] (setting [6]) was found to be 38%; in test [2] (setting [7]), 86%.
For `Cc1ccc(C(=O)c2cccc(C(=O)O)c2)c(O)c1` [Example 30, 3-(2-Hydroxy-4-methylbenzoyl)benzoic acid], in test [1] (5-HETE synthesis), the inhibition at 100 µM amounted to 47%. For the same molecule, the inhibition at 75 µM was 6% in test [2] (setting [6]) and 26% in test [2] (setting [7]).
For `CCCCOc1ccc(C(=O)CCCCC(=O)O)cc1` [Example 33, 5-(4-n-Butoxybenzoyl)pentanoic acid], in that order: 49%, 29% and 63%.
On to `CCCCCCCc1ccc(C(=O)CCCC(=O)O)cc1` [Example 34, 4-(4-n-Heptylbenzoyl)butanoic acid], for which the inhibition at 100 µM in test [1] (5-HETE synthesis) was found to be 76%. Besides, the inhibition at 75 µM in test [2] (setting [6]) came to 39%; in test [2] (setting [7]), 79%. Further, in test [2] (setting [5]), the IC50 is 14 µM.
For `O=C(O)c1cccc(C(=O)c2ccc(C3CCCCC3)cc2)c1` [Example 35, 3-(4-Cyclohexylbenzoyl)benzoic acid], the inhibition at 100 µM in test [1] (5-HETE synthesis) worked out at 63%. Also, the inhibition at 75 µM was 43% in test [2] (setting [6]) and 66% in test [2] (setting [7]). In addition, the IC50 in test [2] (setting [4]) is > 75 µM; in test [2] (setting [5]), 38 µM.
